Patent US20070161513A1, “3-[1-halo-1-arylmethanesulfonyl]- and 3-[1-halo-1-heteroarylmethanesulfonyl]- isoxazoline derivatives, processes for preparing them, and use as herbicides and plant growth regulators” (Bayer CropScience GmbH, priority 2005, published 2007)

Assays:
[1] = test system: weed plants such as Sinapis alba, Echinochloa crus-galli, Cyperus iria, Avena spp., Stellaria media, Setaria spp., and Amaranthus retroflexus; assay: Post-emergence herbicidal activity (pot test under glass); type: in vivo; conditions: applied post-emergence (one-leaf stage) at a rate of 2 kg or less of active substance per hectare; WP formulation; visual scoring after about 3 weeks vs untreated controls
Description: 2. Post-Emergence Herbicidal Activity Seeds of monocot and dicot weed and crop plants are planted out in sandy loam soil in wood fiber pots, covered with soil, and cultivated under glass under good growth conditions. Two-three weeks after sowing, the trial plants are treated at the one-leaf stage. The test compounds, formulated as wettable powders (WP), are then sprayed onto the green parts of the plants, at a water application rate of 600 I/ha (converted), in various dosages, with the addition of 0.2% of wetting agent. After the trial plants have stood for about 3 weeks under glass under optimum growth conditions, the effect of the products is scored visually in comparison with untreated controls. (herbicidal activity in percent (%): 100% activity=plants have died, 0% activity=like control plants).

[2] = test system: weed plants such as Avena spp., Lolium multiflorum, Stellaria media, Setaria spp., Sinapis alba and Amaranthus retroflexus; assay: Pre-emergence herbicidal activity (pot test under glass); type: in vivo; conditions: applied pre-emergence at a rate of 2 kg or less of active substance per hectare; WP formulation; visual scoring after 3 weeks vs untreated controls
Description: 1. Pre-Emergence Herbicidal Activity Seeds of monocot and dicot weed and crop plants are planted out in sandy loam soil in wood fiber pots and covered with soil. The test compounds, formulated as wettable powders (WP), are then applied to the surface of the soil cover, in the form of an aqueous suspension, at a water application rate of 600 I/ha (converted), in various dosages, with the addition of 0.2% of wetting agent. After the treatment, the pots are set up under glass and held under good growth conditions for the test plants. Visual scoring of the emergence damage to the trial plants is made after a trial period of 3 weeks in comparison with untreated controls (herbicidal activity in percent (%): 100% activity=plants have died, 0% activity=like control plants).

Compound	herbicidal activity against weed plants, post-emergence [1]	herbicidal activity against weed plants, pre-emergence [2]
CC1(C)CC(S(=O)(=O)C(Cl)c2ccccc2)=NO1 (stereo not drawn) [Compound I-1.1, 3-{[Chloro(phenyl)methyl]sulfonyl}-5,5-dimethyl-4,5-dihydroisoxazole]	very good herbicidal activity	very good herbicidal activity
CC1(C)CC([S+]([O-])C(Cl)c2ccccc2)=NO1 (stereo not drawn) [III-1.1]	very good herbicidal activity	very good herbicidal activity
CC1(C)CC([S+]([O-])C(Cl)c2c(F)cccc2Cl)=NO1 (stereo not drawn) [III-5.1, 3-{[Chloro(2-chloro-6-fluorophenyl)methyl]sulfinyl}-5,5-dimethyl-4,5-dihydroisoxazole]	very good herbicidal activity	very good herbicidal activity
